Results: patent US10822632B2, “Medium for detecting Staphylococcus aureus, sheet for detecting S. aureus comprising same, and method for detecting S. aureus using same” (DAI NIPPON PRINTING CO., LTD., priority 2016, dated 2020)

Columns and labels:
Experiment in all cases: Experiment 4: growth on culture sheet containing colistin sodium methanesulfonate
Format in all cases: cell-based
[1] = test system: Staphylococcus intermedius ATCC29663; parameters: key: the term “Inhibited” indicates the condition under which the growth was inhibited; a blank column indicates that a colony was formed under normal growth condition; settings: culture 24 hours
Experimental: (§1) A given type of microbial strains to be tested were inoculated into a liquid medium (SCD broth medium), and culture was conducted at 35° C. for 24 hours to prepare a test microbial suspension. This test microbial suspension was diluted with phosphate buffered physiological saline to adjust the cell density to about 1 to 500 cfu/ml. The resulting test microbial sample (1 ml) was inoculated into the culture layer of the microorganism culture sheet prepared with the use of the medium liquid containing the components shown in Table 1 using a micropipette. The microorganism culture sheet into which the sample had been inoculated was allowed to stand in an incubator and culture was then conducted at 35° C. for 24 or 48 hours. After the completion of culture, the microorganism culture sheet was removed from the incubator. The color of the colony formed in the culture layer of the microorganism culture sheet and the color intensity were visually inspected. Each test microbial strain was subjected to the experiment described above. The names of the microbial strains to be tested used for the experiment and the conditions and the color of the colonies formed by the strains are shown in Table 2.
(§2) A test microbial sample was prepared in the same manner as in Experiment 1. Also, the microorganism culture sheet was prepared in the same manner as in Experiment 1. […] With the use of a micropipette, 1 ml of the test microbial sample was inoculated into a culture layer of the microorganism culture sheet. In the same manner as with Experiment 1, the microorganism culture sheet into which the sample had been inoculated was subjected to incubation, culture was conducted for 24 hours, and the color of the colony formed in the culture layer of the microorganism culture sheet and the color intensity were visually inspected. Each test microbial strain was subjected to the experiment described above. The names of the microbial strains to be tested used for the experiment and the conditions of the colonies formed by the strains are shown in Table 5. […] The colistin sodium methanesulfonate concentration indicated in the upper column is mass concentration (mg/cm^3) relative to the total volume of the dried culture layer before the sample was inoculated thereinto, and the concentration indicated in the lower column is mass concentration (mg/ml) relative to the total volume of the sample solution that was inoculated into the culture layer at the time of use.

[2] = test system: Staphylococcus xylosus NBRC109770; parameters: key to Growth condition of the colony: the term “Inhibited” indicates the condition under which the growth was inhibited; a blank column indicates that a colony was formed under normal growth condition; settings: for Growth condition of the colony: culture 24 hours
Experimental: as §1, §2

[3] = test system: Staphylococcus saprophyticus subsp. saprophyticus NBRC102446; parameters: key to Growth condition of the colony: the term “Inhibited” indicates the condition under which the growth was inhibited; a blank column indicates that a colony was formed under normal growth condition; settings: for Growth condition of the colony: culture 24 hours
Experimental: as §1, §2

[4] = test system: Staphylococcus aureus NBRC12732; parameters: key to Growth condition of the colony: the term “Inhibited” indicates the condition under which the growth was inhibited; a blank column indicates that a colony was formed under normal growth condition; settings: for Growth condition of the colony: culture 24 hours
Experimental: as §1, §2

[5] = test system: Staphylococcus sciuri ATCC29062; parameters: key to Growth condition of the colony: the term “Inhibited” indicates the condition under which the growth was inhibited; a blank column indicates that a colony was formed under normal growth condition; settings: for Growth condition of the colony: culture 24 hours
Experimental: as §1, §2

[6] = test system: Staphylococcus carnosus (Derived from roast beef); parameters: key to Growth condition of the colony: the term “Inhibited” indicates the condition under which the growth was inhibited; a blank column indicates that a colony was formed under normal growth condition; settings: for Growth condition of the colony: culture 24 hours
Experimental: as §1, §2

[7] = test system: Staphylococcus aureus ATCC25923; settings: tested concentration of 0.3 to 4.1 mg/cm^3 (0.1 to 1.6 mg/ml in the sample solution)
Experimental: as §1
(§3) A test microbial sample was prepared in the same manner as in Experiment 1. Also, the microorganism culture sheet was prepared in the same manner as in Experiment 1. […]

[8] = test system: Staphylococcus aureus NBRC100910; settings: tested concentration of 0.3 to 4.1 mg/cm^3 (0.1 to 1.6 mg/ml in the sample solution)
Experimental: as §1, §3

[9] = colistin 3.3 mg/cm^3 dried culture layer (1.3 mg/ml sample solution)
[10] = colistin 3.6 mg/cm^3 dried culture layer (1.4 mg/ml sample solution)
[11] = colistin 3.8 mg/cm^3 dried culture layer (1.5 mg/ml sample solution)
[12] = colistin 4.1 mg/cm^3 dried culture layer (1.6 mg/ml sample solution)
[13] = colistin 2.3 mg/cm^3 dried culture layer (0.9 mg/ml sample solution)
[14] = colistin 2.5 mg/cm^3 dried culture layer (1 mg/ml sample solution)
[15] = colistin 2.8 mg/cm^3 dried culture layer (1.1 mg/ml sample solution)
[16] = colistin 3.1 mg/cm^3 dried culture layer (1.2 mg/ml sample solution)
[17] = mass concentration in the sample solution
[18] = mass concentration relative to total volume of dried culture layer
[19] = colistin 1.3 mg/cm^3 dried culture layer (0.5 mg/ml sample solution)
[20] = colistin 1.5 mg/cm^3 dried culture layer (0.6 mg/ml sample solution)
[21] = colistin 1.8 mg/cm^3 dried culture layer (0.7 mg/ml sample solution)
[22] = colistin 2.0 mg/cm^3 dried culture layer (0.8 mg/ml sample solution)

For colistin sodium methanesulfonate, the “Growth condition of the colony” value [1, 9] was “Inhibited”, the “Growth condition of the colony” value [1, 10] was “Inhibited” and the “Growth condition of the colony” value [1, 11] was “Inhibited”. For the same substance, the “Growth condition of the colony” value [1, 12] was “Inhibited”, the “Growth condition of the colony” value [2, 13] was “Inhibited” and the “Growth condition of the colony” value [2, 14] was “Inhibited”. The “Growth condition of the colony” value [2, 15] was “Inhibited”, the “Growth condition of the colony” value [2, 16] was “Inhibited” and the “Growth condition of the colony” value [2, 9] was “Inhibited”. The “Growth condition of the colony” value [2, 10] was “Inhibited”, the “Growth condition of the colony” value [2, 11] was “Inhibited” and the “Growth condition of the colony” value [2, 12] was “Inhibited”. The “Concentration at which growth was inhibited” value [2, 17] was ≥ 0.9 mg/mL, the “Concentration at which growth was inhibited” value [2, 18] was ≥ 2.3 mg/mL and the “Growth condition of the colony” value ([3]; colistin 0.5 mg/cm^3 dried culture layer (0.2 mg/ml sample solution)) was “Inhibited”. For the same substance, the “Growth condition of the colony” value ([3]; colistin 0.8 mg/cm^3 dried culture layer (0.3 mg/ml sample solution)) was “Inhibited”, the “Growth condition of the colony” value ([3]; colistin 1.0 mg/cm^3 dried culture layer (0.4 mg/ml sample solution)) was “Inhibited” and the “Growth condition of the colony” value [3, 19] was “Inhibited”. The “Growth condition of the colony” value [3, 20] was “Inhibited”, the “Growth condition of the colony” value [3, 21] was “Inhibited” and the “Growth condition of the colony” value [3, 22] was “Inhibited”. The “Growth condition of the colony” value [3, 13] was “Inhibited”, the “Growth condition of the colony” value [3, 14] was “Inhibited” and the “Growth condition of the colony” value [3, 15] was “Inhibited”. For the same substance, the “Growth condition of the colony” value [3, 16] was “Inhibited”, the “Growth condition of the colony” value [3, 9] was “Inhibited” and the “Growth condition of the colony” value [3, 10] was “Inhibited”. For the same substance, the “Growth condition of the colony” value [3, 11] was “Inhibited”, the “Growth condition of the colony” value [3, 12] was “Inhibited” and the “Concentration at which growth was inhibited” value [3, 17] was ≥ 0.2 mg/mL. The “Concentration at which growth was inhibited” value [3, 18] was ≥ 0.5 mg/mL, the “Growth condition of the colony” value [4, 16] was “Inhibited” and the “Growth condition of the colony” value [4, 9] was “Inhibited”. The “Growth condition of the colony” value [4, 10] was “Inhibited”, the “Growth condition of the colony” value [4, 11] was “Inhibited” and the “Growth condition of the colony” value [4, 12] was “Inhibited”. The “Concentration at which growth was inhibited” value [4, 17] was 1.2 mg/mL, the “Concentration at which growth was inhibited” value [4, 18] was 3.1 mg/mL and the “Growth condition of the colony” value [5, 13] was “Inhibited”. For the same substance, the “Growth condition of the colony” value [5, 14] was “Inhibited”, the “Growth condition of the colony” value [5, 15] was “Inhibited” and the “Growth condition of the colony” value [5, 16] was “Inhibited”. The “Growth condition of the colony” value [5, 9] was “Inhibited”, the “Growth condition of the colony” value [5, 10] was “Inhibited” and the “Growth condition of the colony” value [5, 11] was “Inhibited”. For the same substance, the “Growth condition of the colony” value [5, 12] was “Inhibited”, the “Concentration at which growth was inhibited” value [5, 17] was ≥ 0.9 mg/mL and the “Concentration at which growth was inhibited” value [5, 18] was ≥ 2.3 mg/mL. The “Growth condition of the colony” value [6, 19] was “Inhibited”, the “Growth condition of the colony” value [6, 20] was “Inhibited” and the “Growth condition of the colony” value [6, 21] was “Inhibited”. The “Growth condition of the colony” value [6, 22] was “Inhibited”, the “Growth condition of the colony” value [6, 13] was “Inhibited” and the “Growth condition of the colony” value [6, 14] was “Inhibited”. For the same substance, the “Growth condition of the colony” value [6, 15] was “Inhibited”, the “Growth condition of the colony” value [6, 16] was “Inhibited” and the “Growth condition of the colony” value [6, 9] was “Inhibited”. For the same substance, the “Growth condition of the colony” value [6, 10] was “Inhibited”, the “Growth condition of the colony” value [6, 11] was “Inhibited” and the “Growth condition of the colony” value [6, 12] was “Inhibited”. For the same substance, the “Concentration at which growth was inhibited” value [6, 17] was ≥ 0.5 mg/mL, the “Concentration at which growth was inhibited” value [6, 18] was ≥ 1.3 mg/mL and the Growth inhibition [7] was “did not inhibit the growth”. For the same substance, the Growth inhibition [8] was “did not inhibit the growth”.
